Converted amounts (≈) assume the structure as drawn. The source made the active and inactive calls. The calls are words filed in the database; no cut-off is given here.
How the values were obtained:
[1] = Chromatographic hydrophobicity index, logD of the compound at pH 7.4; type: physicochemical; conditions: buffer
[2] = Neurotoxicity in human iPSC cells co-cultured with human astrocyte assessed as reduction in neuronal firing rate at 0.37 to 30 uM incubated for 1 hr by multi-electrode array analysis; type: toxicity, cell-based; conditions: dose 0.37-30 µM
[3] = system: H1-HeLa; experiment: Inhibition of STT3A/STT3B in human H1-HeLa cells assessed as upregulation of […] gene expression incubated for 24 hrs; type: cell-based
[4] = system: H1-HeLa; experiment: Inhibition of STT3A/STT3B in human H1-HeLa cells assessed as upregulation of DERL3 gene expression incubated for 24 hrs; type: cell-based
[5] = Cardiotoxicity in human iPSC-CM cells assessed as decrease in spike amplitude at 370 nM incubated for 48 hr by multi-electrode array analysis; type: toxicity, cell-based; conditions: 0.37 µM
[6] = Neurotoxicity in human iPSC cells co-cultured with human astrocyte assessed as […] incubated for 1 hr by multi-electrode array analysis; type: toxicity, cell-based; conditions: iPSC cells co-cultured with astrocytes
[7] = system: A549; experiment: Cytotoxicity against human A549 cells by fluorescent cell imaging assay; type: functional
[8] = Solubility of compound in FaSSIF; type: ADME
[9] = Inhibition of STT3A/STT3B mediated N-linked glycosylation in STT3A knockout human H1-HeLa cells stably transduced with Halo3N-ER sequence by measuring effective concentration incubated for 24 hrs by Western blotting analysis; type: cell-based
[10] = system: H1-HeLa; experiment: Inhibition of STT3A/STT3B in human H1-HeLa cells assessed as upregulation of MANF gene expression incubated for 24 hrs; type: cell-based
[11] = Bioavailability in CD1 mouse at 2 mg/kg,po or 1 mg/kg,iv administrated upto 60 mins by LC-MS/MS analysis; type: ADME, organism-based; conditions: in vivo
[12] = system: Influenza A virus; experiment: Antiviral activity against influenza A virus H1N1 A/Puerto Rico/8/1934 infected in MDCK cells assessed as reduction in viral replication measured after 3 hrs of post-infection by RT-qPCR analysis relative to control; type: functional; set-up: scale not given: the % may be the effect or the level left
[13] = Cardiotoxicity in human iPSC-CM cells assessed as increase in field potential duration at 10 uM incubated for 1 hr by multi-electrode array analysis; type: toxicity, cell-based
[14] = Unbound clearance in human liver microsomes at 0.5 uM incubated upto 45 mins; type: ADME, Microsome; conditions: 0.75 h
[15] = system: H1-HeLa; experiment: Inhibition of STT3A/STT3B in human H1-HeLa cells assessed as upregulation of SDF2L1 gene expression incubated for 24 hrs; type: cell-based
[16] = molecular target: Voltage-dependent L-type calcium channel subunit alpha-1C (Homo sapiens, UniProt Q13936); experiment: Inhibition of Cav1.2 (unknown origin) expressed in HEK cells by manual patch clamp assay; type: toxicity, cell-based
Sequence of Voltage-dependent L-type calcium channel subunit alpha-1C (Q13936 whole entry): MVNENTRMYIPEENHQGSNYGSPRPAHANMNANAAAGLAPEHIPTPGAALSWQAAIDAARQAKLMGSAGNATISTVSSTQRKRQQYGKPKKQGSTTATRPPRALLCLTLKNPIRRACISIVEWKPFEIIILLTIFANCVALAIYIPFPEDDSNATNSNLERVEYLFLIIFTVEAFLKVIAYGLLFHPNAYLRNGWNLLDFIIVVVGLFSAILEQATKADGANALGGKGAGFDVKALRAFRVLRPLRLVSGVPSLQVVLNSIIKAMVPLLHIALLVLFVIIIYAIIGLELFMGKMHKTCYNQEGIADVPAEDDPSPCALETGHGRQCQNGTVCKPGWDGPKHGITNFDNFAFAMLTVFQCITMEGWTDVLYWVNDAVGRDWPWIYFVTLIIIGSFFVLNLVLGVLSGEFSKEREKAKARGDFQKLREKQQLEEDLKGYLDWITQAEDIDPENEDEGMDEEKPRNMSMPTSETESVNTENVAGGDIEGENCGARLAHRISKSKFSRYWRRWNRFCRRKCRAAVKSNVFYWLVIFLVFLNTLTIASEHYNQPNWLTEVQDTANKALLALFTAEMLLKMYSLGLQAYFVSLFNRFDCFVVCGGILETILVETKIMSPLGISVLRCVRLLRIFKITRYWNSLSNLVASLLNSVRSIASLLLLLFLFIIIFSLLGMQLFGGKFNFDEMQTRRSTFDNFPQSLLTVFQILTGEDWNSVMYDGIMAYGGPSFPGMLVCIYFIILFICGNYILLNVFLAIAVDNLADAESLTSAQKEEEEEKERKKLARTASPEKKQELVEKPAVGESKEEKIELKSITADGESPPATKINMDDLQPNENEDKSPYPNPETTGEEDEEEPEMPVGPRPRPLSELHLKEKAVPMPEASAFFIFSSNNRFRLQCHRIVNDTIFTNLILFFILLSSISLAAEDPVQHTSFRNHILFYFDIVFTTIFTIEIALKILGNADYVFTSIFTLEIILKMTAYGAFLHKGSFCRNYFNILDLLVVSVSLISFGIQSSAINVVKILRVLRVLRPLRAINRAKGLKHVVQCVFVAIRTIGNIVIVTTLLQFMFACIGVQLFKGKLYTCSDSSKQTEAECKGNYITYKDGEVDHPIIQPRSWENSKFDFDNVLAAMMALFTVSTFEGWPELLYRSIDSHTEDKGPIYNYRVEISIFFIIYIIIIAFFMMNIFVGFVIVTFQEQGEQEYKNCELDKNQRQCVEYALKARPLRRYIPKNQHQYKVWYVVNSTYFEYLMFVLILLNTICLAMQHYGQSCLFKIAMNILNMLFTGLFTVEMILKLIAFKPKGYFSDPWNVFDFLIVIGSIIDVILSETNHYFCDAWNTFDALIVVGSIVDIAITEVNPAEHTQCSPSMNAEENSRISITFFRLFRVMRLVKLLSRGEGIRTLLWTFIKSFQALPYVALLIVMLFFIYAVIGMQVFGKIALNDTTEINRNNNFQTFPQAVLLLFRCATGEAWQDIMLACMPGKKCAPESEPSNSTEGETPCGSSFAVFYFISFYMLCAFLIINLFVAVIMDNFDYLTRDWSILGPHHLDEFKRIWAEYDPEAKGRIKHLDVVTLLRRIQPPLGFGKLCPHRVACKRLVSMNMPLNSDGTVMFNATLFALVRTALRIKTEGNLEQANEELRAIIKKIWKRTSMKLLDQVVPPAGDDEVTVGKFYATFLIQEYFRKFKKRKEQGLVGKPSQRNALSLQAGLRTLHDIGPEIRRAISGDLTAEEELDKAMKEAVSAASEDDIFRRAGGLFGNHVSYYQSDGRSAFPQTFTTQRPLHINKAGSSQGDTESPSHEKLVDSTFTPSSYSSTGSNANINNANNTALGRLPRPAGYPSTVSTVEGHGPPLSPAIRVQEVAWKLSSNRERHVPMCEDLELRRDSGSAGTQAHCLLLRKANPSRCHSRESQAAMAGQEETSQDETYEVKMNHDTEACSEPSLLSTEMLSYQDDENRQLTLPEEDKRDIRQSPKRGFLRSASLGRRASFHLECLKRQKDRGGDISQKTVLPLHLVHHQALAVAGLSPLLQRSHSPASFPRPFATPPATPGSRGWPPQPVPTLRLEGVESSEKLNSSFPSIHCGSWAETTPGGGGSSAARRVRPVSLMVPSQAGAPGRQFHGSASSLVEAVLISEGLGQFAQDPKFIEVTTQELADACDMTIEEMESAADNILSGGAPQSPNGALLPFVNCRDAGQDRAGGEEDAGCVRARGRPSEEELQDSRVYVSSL

[17] = Cardiotoxicity in human iPSC-CM cells assessed as increase in field potential duration at 370 nM incubated for 48 hr by multi-electrode array analysis; type: toxicity, cell-based; conditions: 0.37 µM
[18] = Unbound clearance in rat liver microsomes at 0.5 uM incubated upto 45 mins; type: ADME, Microsome; conditions: 0.75 h
[19] = system: Influenza A virus; experiment: Antiviral activity against influenza A virus H1N1 A/Puerto Rico/8/1934 infected in MDCK cells assessed as reduction in viral proliferation incubated for 24 hrs by FFU assay; type: functional, organism-based; conditions: H1N1 A/Puerto Rico/8/1934, MDCK
[20] = Volume of distribution at steady state in CD1 mouse at 2 mg/kg,po or 1 mg/kg,iv administrated upto 60 mins by LC-MS/MS analysis; type: ADME, organism-based; conditions: in vivo, 1 h
[21] = system: SARS-CoV-2; experiment: Antiviral activity against SARS-CoV-2 infected in human A549 cells assessed as reduction in viral growth incubated for 24 hrs by Nano-Glo reagent based analysis; type: functional, organism-based; conditions: Severe acute respiratory syndrome coronavirus 2, A549, 24 h
[22] = system: A549; experiment: Cytotoxicity against human A549 cells; type: functional
[23] = molecular target: T1, Voltage-gated inwardly rectifying potassium channel KCNH2 (Homo sapiens, UniProt Q12809); experiment: Inhibition of hERG expressed in CHO cells by QPatch voltage clamp assay; type: toxicity, cell-based
T1 sequence (Q12809 whole entry): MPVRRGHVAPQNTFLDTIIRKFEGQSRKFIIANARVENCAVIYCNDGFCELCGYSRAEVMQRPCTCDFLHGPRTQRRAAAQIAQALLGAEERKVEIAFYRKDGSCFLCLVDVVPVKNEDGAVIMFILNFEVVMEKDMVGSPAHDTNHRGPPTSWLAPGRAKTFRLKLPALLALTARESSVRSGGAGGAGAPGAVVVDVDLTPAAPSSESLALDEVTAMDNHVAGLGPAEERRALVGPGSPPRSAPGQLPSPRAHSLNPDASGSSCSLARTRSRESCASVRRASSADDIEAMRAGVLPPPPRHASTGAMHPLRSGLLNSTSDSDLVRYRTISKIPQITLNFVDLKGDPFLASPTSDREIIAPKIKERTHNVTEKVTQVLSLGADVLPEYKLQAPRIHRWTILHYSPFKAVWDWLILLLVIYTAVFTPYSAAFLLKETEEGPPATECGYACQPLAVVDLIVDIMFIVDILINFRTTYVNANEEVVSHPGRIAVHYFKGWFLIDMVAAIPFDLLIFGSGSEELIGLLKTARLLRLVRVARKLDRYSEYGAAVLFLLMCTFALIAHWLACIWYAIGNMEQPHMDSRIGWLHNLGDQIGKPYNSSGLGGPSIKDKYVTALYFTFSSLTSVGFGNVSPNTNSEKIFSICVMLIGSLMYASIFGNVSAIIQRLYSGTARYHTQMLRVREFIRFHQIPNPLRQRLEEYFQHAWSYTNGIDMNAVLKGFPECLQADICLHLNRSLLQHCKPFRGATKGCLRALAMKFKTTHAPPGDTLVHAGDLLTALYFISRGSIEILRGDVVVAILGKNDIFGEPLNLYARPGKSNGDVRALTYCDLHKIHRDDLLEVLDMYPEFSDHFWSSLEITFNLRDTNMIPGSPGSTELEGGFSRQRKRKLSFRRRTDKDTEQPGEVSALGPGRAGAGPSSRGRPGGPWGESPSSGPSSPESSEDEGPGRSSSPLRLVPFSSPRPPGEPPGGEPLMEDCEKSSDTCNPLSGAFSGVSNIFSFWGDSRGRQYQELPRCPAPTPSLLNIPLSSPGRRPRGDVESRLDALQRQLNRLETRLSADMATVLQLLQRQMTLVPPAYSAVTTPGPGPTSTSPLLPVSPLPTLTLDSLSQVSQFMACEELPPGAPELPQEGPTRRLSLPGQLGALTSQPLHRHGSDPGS

[24] = Neurotoxicity in human iPSC cells co-cultured with human astrocyte assessed as inhibition of cell growth at 300 nM incubated for 48 hr by multi-electrode array analysis relative to control; type: toxicity, cell-based; conditions: iPSC cells co-cultured with astrocytes
[25] = MRT in CD1 mouse at 2 mg/kg,po or 1 mg/kg,iv administrated upto 60 mins by LC-MS/MS analysis; type: ADME, organism-based; conditions: in vivo
[26] = system: Human coronavirus 229E; experiment: Antiviral activity against Human coronavirus 229E infected in human MRC5 cells assessed as reduction in viral growth incubated for 68 hrs by CellTiter-Glo luminescence assay; type: functional, organism-based; conditions: MRC5, 68 h
[27] = Cardiotoxicity in human iPSC-CM cells assessed as decrease in beat period at 1 uM incubated for 48 hr by multi-electrode array analysis; type: toxicity, cell-based
[28] = system: Influenza A virus; experiment: Antiviral activity against influenza A virus H1N1 A/Puerto Rico/8/1934 infected in MDCK cells assessed as reduction in viral replication measured after 30 hrs of post-infection by RT-qPCR analysis relative to control; type: functional; set-up: scale not given: the % may be the effect or the level left
[29] = molecular target: Sodium channel protein type 5 subunit alpha (Homo sapiens, UniProt Q14524); experiment: Inhibition of Nav1.5 (unknown origin); type: toxicity
[30] = Cytotoxicity against human MRC5 cells by luminescence-based cell viability assay; type: toxicity
[31] = Cytotoxicity against human Hepatocyte cultured as 3D spheroids incubated for 14 days by CellTiter-Glo luminescence assay; type: toxicity, cell-based; conditions: hepatocytes cultured as 3D spheroids
[32] = Unbound clearance in CD1 mouse at 2 mg/kg,po or 1 mg/kg,iv administrated upto 60 mins by LC-MS/MS analysis; type: ADME, organism-based; conditions: in vivo, 1 h
[33] = system: Human respirovirus 3; experiment: Antiviral activity against Human parainfluenza virus 3 JS infected in human A549 cells assessed as reduction in viral proliferation incubated for 44 hrs by Hoechst dye based fluorescence analysis; type: functional, organism-based; conditions: Human respirovirus 3, JS, A549, 44 h
[34] = Inhibition of STT3A/STT3B mediated N-linked glycosylation in STT3B knockout human H1-HeLa cells stably transduced with Halo3N-ER sequence by measuring effective concentration incubated for 24 hrs by Western blotting analysis; type: cell-based
[35] = Inhibition of STT3A/STT3B mediated N-linked glycosylation in human H1-HeLa cells stably transduced with ERluc by measuring effective concentration of inhibition incubated for 18 hrs by One-Glo luciferase reporter assay; type: cell-based
[36] = Cardiotoxicity in human iPSC-CM cells assessed as decrease in spike amplitude at 3 uM incubated for 1 hr by multi-electrode array analysis; type: toxicity, cell-based; set-up: scale not given: the % may be the effect or the level left
[37] = Cardiotoxicity in human iPSC-CM cells assessed as decrease in beat period at 30 uM incubated for 1 hr by multi-electrode array analysis; type: toxicity, cell-based
[38] = molecular target: T1, Voltage-gated inwardly rectifying potassium channel KCNH2; experiment: Inhibition of HA-tagged hERG expressed in human U2OS cells assessed as reduction in ERG protein at 3 uM incubated for 24 hrs by Western blotting analysis; type: toxicity, cell-based
[39] = Cardiotoxicity in human iPSC-CM cells assessed as increase in field potential duration incubated for 48 hr by multi-electrode array analysis; type: toxicity, cell-based
[40] = Cardiotoxicity in human iPSC-CM cells assessed as decrease in spike amplitude incubated for 48 hr by multi-electrode array analysis; type: toxicity, cell-based

CN(C)S(=O)(=O)c1ccc(N2CC[C@H](O)C2)c(-c2cc3ccccc3[nH]2)c1
chromatographic logD [1]: 4.8
Activity [2]: Toxic
inhibition [3]: Active
inhibition [4]: Active
Activity [5]: Toxic
IC50 at 1 hr [6]: 23000 nM
CC50 [7]: 831 nM
solubility [8]: 53 µg/mL (≈ 137 µM)
EC50 [9]: 63 nM
inhibition [10]: Active
bioavailability [11]: 28%
Activity [12]: >90%
Activity [13]: 20%
CL free [14]: 158 mL/min/kg
inhibition [15]: Active
IC50 [16]: > 100000 nM
Activity [17]: Toxic
CL free [18]: 3761 mL/min/kg
EC50 [19]: 297 nM
Vdss [20]: 4.3 L/kg
EC50 [21]: 62 nM
CC50 [22]: 2750 nM
IC50 [23]: ~20000 nM
inhibition at 48 h, 0.3 µM [24]: 75%
MRT [25]: 1 h
EC50 [26]: 30 nM
Activity [27]: Toxic
Activity [28]: 60%
IC50 [29]: ~20000 nM
CC50 [30]: 984 nM
IC50 at 14 days [31]: < 1200 nM
CL free [32]: 2268 mL/min/kg
EC50 [33]: 187 nM
EC50 [34]: 41 nM
EC50 [35]: 23 nM
Activity [36]: 20%
Activity [37]: Toxic

O=C([C@@H]1CCN1S(=O)(=O)c1ccc(N2CCC(F)(F)C2)c(-c2cc3ccccc3[nH]2)c1)N1CCOCC1
chromatographic logD [1]: 5.3
CL free [14]: > 2851 mL/min/kg
CL free [18]: > 4854 mL/min/kg
inhibition (INH) [38]: Active
IC50 at 14 days [31]: < 1200 nM
EC50 [35]: 5 nM

C=C[C@H]1C[N@@]2CC[C@H]1C[C@@H]2[C@@H](O)c1ccnc2ccc(OC)cc12 [QUINIDINE]
Activity [39]: Non-Toxic
Activity [40]: Non-Toxic

From ChEMBL document CHEMBL5576149, “Discovery of Potent STT3A/B Inhibitors and Assessment of Their Multipathogen Antiviral Potential and Safety” (J Med Chem, 2024)
